Reference: publication PMC8617944, “Preclinical Pharmacokinetics and Acute Toxicity in Rats of 5-{[(2E)-3-Bromo-3-carboxyprop-2-enoyl]amino}-2-hydroxybenzoic Acid: A Novel 5-Aminosalicylic Acid Derivative with Potent Anti-Inflammatory Activity” (Molecules, 2021)
“Also recorded” adds a separate entry of the source. Like-named read-outs stand apart in the source and are kept apart here.

Legend:
[1] = Distribution of C1 in tissues; type: in vivo, Wistar rats; conditions: p.o. 75 mg/kg
Method: Fifteen male Wistar rats were distributed in five groups (n = 3) and rats were orally administered C1 at a single dose of 75 mg/kg. Subsequently, a group of animals was sacrificed (n = 3) at 10, 30, 90, 180, and 360 min. […] All tissues and organs were weighed on an analytical balance and immediately processed. Each tissue sample was homogenized with saline solution in a 1:3 (wt/v) ratio. The preparation process for analysis was the same as described above for plasma samples [57] (File S8).

myeloperoxidase (MPO) = test system: myeloperoxidase (MPO); set-up: method as in ref 32, 33 = [32]; doi:10.1016/j.arabjc.2016.12.026; 32. Cabrera Pérez L.C. Gutiérrez Sánchez M. Mendieta Wejebe J.E. Hernández Rodríguez M. Fragoso Vázquez M.J. Salazar J.R. Correa Basurto J. Padilla Martínez I.I. Rosales Hernández M.C. Novel 5-aminosa || [33]; 33. Correa Basurto J. Rosales Hernández M.C. Mendieta Wejebe J.E. Trujillo Ferrara J.G. Padilla Martínez I.I. Ramírez Durán L.A. Alemán González Duhart D. Síntesis de un derivado del ácido 5-aminosali; conditions: o-dianisidine method; cited from earlier work

## O=C(/C=C(/Br)C(=O)O)Nc1ccc(O)c(C(=O)O)c1 [Compound C1, 5-{[(2E)-3-bromo-3-carboxyprop-2-enoyl]amino}-2-hydroxybenzoic acid]
[1]; male, Wistar, rat, heart, po, 75 mg/kg, Hearth, 6 h, n = 3, read-out: Average Concentration
  concentration at 6 h: 2.7 µg/mL
[1]; male, Wistar, rat, heart, po, 75 mg/kg, Hearth, individual rats, read-out: Concentration (µg/mL) at 30 minutes, Rat 1-3
  concentration at 30 min: 3.8 µg/mL
[1]; male, Wistar, rat, heart, po, 75 mg/kg, Hearth, individual rats, read-out: Concentration (µg/mL) at 90 minutes, Rat 1-3
  concentration at 90 min: 2.7 µg/mL
[1]; male, Wistar, rat, heart, po, 75 mg/kg, Hearth, individual rats, read-out: Concentration (µg/mL) at 3 h, Rat 1-3
  concentration at 3 h: 2.5 µg/mL
[1]; male, Wistar, rat, heart, po, 75 mg/kg, Hearth, individual rats, read-out: Concentration (µg/mL) at 6 h, Rat 1-3
  concentration at 6 h: 2.4 µg/mL
[1]; male, Wistar, rat, kidney, po, 75 mg/kg, Kidney, 10 min, n = 3, read-out: Average Concentration
  concentration at 10 min: 16 µg/mL
[1]; male, Wistar, rat, kidney, po, 75 mg/kg, Kidney, 30 min, n = 3, read-out: Average Concentration
  concentration at 30 min: 6.9 µg/mL
[1]; male, Wistar, rat, kidney, po, 75 mg/kg, Kidney, 90 min, n = 3, read-out: Average Concentration
  concentration at 90 min: 4.8 µg/mL
[1]; male, Wistar, rat, kidney, po, 75 mg/kg, Kidney, 3 h, n = 3, read-out: Average Concentration
  concentration at 3 h: 4.7 µg/mL
[1]; male, Wistar, rat, kidney, po, 75 mg/kg, Kidney, 6 h, n = 3, read-out: Average Concentration
  concentration at 6 h: 4.1 µg/mL
[1]; male, Wistar, rat, kidney, po, 75 mg/kg, Kidney, individual rats, read-out: Concentration (µg/mL) at 30 minutes, Rat 1-3
  concentration at 30 min: 6.1 µg/mL
[1]; male, Wistar, rat, kidney, po, 75 mg/kg, Kidney, individual rats, read-out: Concentration (µg/mL) at 90 minutes, Rat 1-3
  concentration at 90 min: 3.6 µg/mL
[1]; male, Wistar, rat, liver, po, 75 mg/kg, Liver, 10 min, n = 3, read-out: Average Concentration
  concentration at 10 min: 4.6 µg/mL
[1]; male, Wistar, rat, liver, po, 75 mg/kg, Liver, 30 min, n = 3, read-out: Average Concentration
  concentration at 30 min: 6.4 µg/mL
[1]; male, Wistar, rat, liver, po, 75 mg/kg, Liver, 90 min, n = 3, read-out: Average Concentration
  concentration at 90 min: 4.4 µg/mL
[1]; male, Wistar, rat, liver, po, 75 mg/kg, Liver, 3 h, n = 3, read-out: Average Concentration
  concentration at 3 h: 4.9 µg/mL
[1]; male, Wistar, rat, liver, po, 75 mg/kg, Liver, 6 h, n = 3, read-out: Average Concentration
  concentration at 6 h: 4.2 µg/mL
[1]; male, Wistar, rat, liver, po, 75 mg/kg, Liver, individual rats, read-out: Concentration (µg/mL) at 10 minutes, Rat 1-3
  concentration at 10 min: 4.4 µg/mL
[1]; male, Wistar, rat, liver, po, 75 mg/kg, Liver, individual rats, read-out: Concentration (µg/mL) at 30 minutes, Rat 1-3
  concentration at 30 min: 5.8 µg/mL
[1]; male, Wistar, rat, lung, po, 75 mg/kg, Lung, 10 min, n = 3, read-out: Average Concentration
  concentration at 10 min: 15.7 µg/mL
[1]; male, Wistar, rat, lung, po, 75 mg/kg, Lung, 30 min, n = 3, read-out: Average Concentration
  concentration at 30 min: 10.7 µg/mL
[1]; male, Wistar, rat, lung, po, 75 mg/kg, Lung, 90 min, n = 3, read-out: Average Concentration
  concentration at 90 min: 7.4 µg/mL
[1]; male, Wistar, rat, lung, po, 75 mg/kg, Lung, 3 h, n = 3, read-out: Average Concentration
  concentration at 3 h: 7.2 µg/mL
[1]; male, Wistar, rat, lung, po, 75 mg/kg, Lung, 6 h, n = 3, read-out: Average Concentration
  concentration at 6 h: 6.3 µg/mL
[1]; male, Wistar, rat, muscle, po, 75 mg/kg, Muscle, 10 min, n = 3, read-out: Average Concentration
  concentration at 10 min: 4.7 µg/mL
[1]; male, Wistar, rat, muscle, po, 75 mg/kg, Muscle, 30 min, n = 3, read-out: Average Concentration
  concentration at 30 min: 3.8 µg/mL
[1]; male, Wistar, rat, muscle, po, 75 mg/kg, Muscle, 90 min, n = 3, read-out: Average Concentration
  concentration at 90 min: 3.3 µg/mL
[1]; male, Wistar, rat, muscle, po, 75 mg/kg, Muscle, 3 h, n = 3, read-out: Average Concentration
  concentration at 3 h: 2.7 µg/mL
[1]; male, Wistar, rat, muscle, po, 75 mg/kg, Muscle, 6 h, n = 3, read-out: Average Concentration
  concentration at 6 h: 2.5 µg/mL
[1]; male, Wistar, rat, muscle, po, 75 mg/kg, Muscle, individual rats, read-out: Concentration (µg/mL) at 10 minutes, Rat 1-3
  concentration at 10 min: 4.8 µg/mL
[1]; male, Wistar, rat, muscle, po, 75 mg/kg, Muscle, individual rats, read-out: Concentration (µg/mL) at 30 minutes, Rat 1-3
  concentration at 30 min: 3.4 µg/mL
[1]; male, Wistar, rat, muscle, po, 75 mg/kg, Muscle, individual rats, read-out: Concentration (µg/mL) at 90 minutes, Rat 1-3
  concentration at 90 min: 3.2 µg/mL
[1]; male, Wistar, rat, muscle, po, 75 mg/kg, Muscle, individual rats, read-out: Concentration (µg/mL) at 3 h, Rat 1-3
  concentration at 3 h: 3 µg/mL
[1]; male, Wistar, rat, po, rats, read-out: time of maximum concentration in tissues and organs (converted)
  Tmax: 10 min
[1]; male, Wistar, rat, small intestine, po, 75 mg/kg, Small intestine, 10 min, n = 3, read-out: Average Concentration
  concentration at 10 min: 31.6 µg/mL
[1]; male, Wistar, rat, small intestine, po, 75 mg/kg, Small intestine, 30 min, n = 3, read-out: Average Concentration
  concentration at 30 min: 15.7 µg/mL
[1]; male, Wistar, rat, small intestine, po, 75 mg/kg, Small intestine, 90 min, n = 3, read-out: Average Concentration
  concentration at 90 min: 15.8 µg/mL
[1]; male, Wistar, rat, small intestine, po, 75 mg/kg, Small intestine, 3 h, n = 3, read-out: Average Concentration
  concentration at 3 h: 14.8 µg/mL
[1]; male, Wistar, rat, small intestine, po, 75 mg/kg, Small intestine, 6 h, n = 3, read-out: Average Concentration
  concentration at 6 h: 10.1 µg/mL
[1]; male, Wistar, rat, small intestine, po, 75 mg/kg, Small intestine, individual rats, read-out: Concentration (µg/mL) at 90 minutes, Rat 1-3
  concentration at 90 min: 15.1 µg/mL
[1]; male, Wistar, rat, small intestine, po, 75 mg/kg, Small intestine, individual rats, read-out: Concentration (µg/mL) at 3 h, Rat 1-3
  concentration at 3 h: 14.2 µg/mL
[1]; male, Wistar, rat, small intestine, po, 75 mg/kg, Small intestine, individual rats, read-out: Concentration (µg/mL) at 6 h, Rat 1-3
  concentration at 6 h: 9.1 µg/mL
[1]; male, Wistar, rat, spleen, po, 75 mg/kg, Spleen, 10 min, n = 3, read-out: Average Concentration
  concentration at 10 min: 31.8 µg/mL
[1]; male, Wistar, rat, spleen, po, 75 mg/kg, Spleen, 30 min, n = 3, read-out: Average Concentration
  concentration at 30 min: 17.2 µg/mL
[1]; male, Wistar, rat, spleen, po, 75 mg/kg, Spleen, 90 min, n = 3, read-out: Average Concentration
  concentration at 90 min: 11.7 µg/mL
[1]; male, Wistar, rat, spleen, po, 75 mg/kg, Spleen, 3 h, n = 3, read-out: Average Concentration
  concentration at 3 h: 8.7 µg/mL
[1]; male, Wistar, rat, spleen, po, 75 mg/kg, Spleen, 6 h, n = 3, read-out: Average Concentration
  concentration at 6 h: 7.8 µg/mL
[1]; male, Wistar, rat, spleen, po, 75 mg/kg, Spleen, individual rats, read-out: Concentration (µg/mL) at 10 minutes, Rat 1-3
  concentration at 10 min: 30 µg/mL
[1]; male, Wistar, rat, spleen, po, 75 mg/kg, Spleen, individual rats, read-out: Concentration (µg/mL) at 30 minutes, Rat 1-3
  concentration at 30 min: 21 µg/mL
[1]; male, Wistar, rat, stomach, po, 75 mg/kg, Stomach, 10 min, n = 3, read-out: Average Concentration
  concentration at 10 min: 18.3 µg/mL
[1]; male, Wistar, rat, stomach, po, 75 mg/kg, Stomach, 30 min, n = 3, read-out: Average Concentration
  concentration at 30 min: 10.2 µg/mL
[1]; male, Wistar, rat, stomach, po, 75 mg/kg, Stomach, 90 min, n = 3, read-out: Average Concentration
  concentration at 90 min: 7.9 µg/mL
[1]; male, Wistar, rat, stomach, po, 75 mg/kg, Stomach, 3 h, n = 3, read-out: Average Concentration
  concentration at 3 h: 6.4 µg/mL
[1]; male, Wistar, rat, stomach, po, 75 mg/kg, Stomach, 6 h, n = 3, read-out: Average Concentration
  concentration at 6 h: 4.7 µg/mL
[1]; male, Wistar, rat, testis, po, 75 mg/kg, Testis, 10 min, n = 3, read-out: Average Concentration
  concentration at 10 min: 9.9 µg/mL
[1]; male, Wistar, rat, testis, po, 75 mg/kg, Testis, 30 min, n = 3, read-out: Average Concentration
  concentration at 30 min: 3.8 µg/mL
[1]; male, Wistar, rat, testis, po, 75 mg/kg, Testis, 90 min, n = 3, read-out: Average Concentration
  concentration at 90 min: 4 µg/mL
[1]; male, Wistar, rat, testis, po, 75 mg/kg, Testis, 3 h, n = 3, read-out: Average Concentration
  concentration at 3 h: 3 µg/mL
[1]; male, Wistar, rat, testis, po, 75 mg/kg, Testis, 6 h, n = 3, read-out: Average Concentration
  concentration at 6 h: 3.1 µg/mL
[1]; male, Wistar, rat, testis, po, 75 mg/kg, Testis, individual rats, read-out: Concentration (µg/mL) at 30 minutes, Rat 1-3
  concentration at 30 min: 4 µg/mL
[1]; male, Wistar, rat, testis, po, 75 mg/kg, Testis, individual rats, read-out: Concentration (µg/mL) at 3 h, Rat 1-3
  concentration at 3 h: 3.1 µg/mL
[1]; male, Wistar, rat, testis, po, 75 mg/kg, Testis, individual rats, read-out: Concentration (µg/mL) at 6 h, Rat 1-3
  concentration at 6 h: 2.1 µg/mL
[1]; rats, 75 mg/kg
  crossing of blood-brain barrier and hemato-testicular barrier: able to cross the blood-brain barrier and hemato-testicular barrier; also recorded: crossed the hemato-encephalic barrier
Myeloperoxidase (MPO)
  inhibition of myeloperoxidase (MPO): comparable to that of indomethacin
